Laboratory results: PubChem BioAssay (NCI)
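Where inhibition never reached the appropriate level, the endpoint shown equals the highest concentration tested. Otherwise, values were interpolated linearly from a five-concentration, 48-hour dose response in 96-well plates. TGI: total growth inhibition.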

Experiments:
Experiment in all cases: inhibition of tumour cell growth, NCI panel, 48 h
BT-549 breast = test system: BT-549 breast
CAKI-1 renal = test system: CAKI-1 renal
DU-145 prostate = test system: DU-145 prostate
EKVX NSCLC = test system: EKVX NSCLC
HCC-2998 colon = test system: HCC-2998 colon
HCT-15 colon = test system: HCT-15 colon
HOP-92 NSCLC = test system: HOP-92 NSCLC
M14 melanoma = test system: M14 melanoma
MCF7 breast = test system: MCF7 breast
NCI-H522 lung = test system: NCI-H522 lung
OVCAR-5 ovarian = test system: OVCAR-5 ovarian
RPMI-8226 leukemia = test system: RPMI-8226 leukemia
SNB-19 CNS = test system: SNB-19 CNS
SNB-75 CNS = test system: SNB-75 CNS
UO-31 renal = test system: UO-31 renal
HL-60(TB) leukemia = test system: HL-60(TB) leukemia
NCI-H226 lung = test system: NCI-H226 lung
SF-268 CNS = test system: SF-268 CNS

SMILES | TGI (BT-549 breast) [µM] | TGI (CAKI-1 renal) [µM] | TGI (DU-145 prostate) [µM] | TGI (EKVX NSCLC) [µM] | TGI (HCC-2998 colon) [µM] | TGI (HCT-15 colon) [µM] | TGI (HOP-92 NSCLC) [µM] | TGI (M14 melanoma) [µM] | TGI (MCF7 breast) [µM] | TGI (NCI-H522 lung) [µM] | TGI (OVCAR-5 ovarian) [µM] | TGI (RPMI-8226 leukemia) [µM] | TGI (SNB-19 CNS) [µM] | TGI (SNB-75 CNS) [µM] | TGI (UO-31 renal) [µM] | TGI (HL-60(TB) leukemia) [µM] | TGI (NCI-H226 lung) [µM] | TGI (SF-268 CNS) [µM]
O=C(/C=C/c1cccc([N+](=O)[O-])c1)N1CCN(CCOC(c2ccccc2)c2ccccc2)CC1 | > 100 | > 100 | > 100 | > 100 | 55.2 | > 100 | 55.7 | > 100 | > 100 | > 100 | > 100 | 27.8 | > 100 | > 100 | > 100 |  |  | 
Cc1c(N=Nc2ccccc2)c(-c2ccccc2)n(C2OC(CO)C(O)C(O)C2O)c(=S)c1C#N (centres undefined) | > 100 |  | 41.7 | 42.5 | 30.9 | 25.5 |  | 19.3 | 17.1 | 14.1 | 28.9 | > 100 | 27.8 | > 100 | 39.4 | > 100 | 28.5 | 37
Cc1cc(S(=O)(=O)Nc2nc(N)nc(N3N=CCC3C)n2)c(SCC(=O)O)cc1Cl (centres undefined) | > 10 | > 10 | > 10 | > 10 | > 10 | > 10 |  | > 10 | > 10 | > 10 | > 10 | > 10 | > 10 | > 10 |  | > 10 | > 10 | > 10
O=[N+]([O-])/C(C(Cl)=C(Cl)Cl)=C1\Nc2ccc([N+](=O)[O-])cc2N1 | > 100 | > 100 | > 100 | > 100 |  | > 100 | > 100 | > 100 | > 100 | 63 | > 100 | > 100 | > 100 | > 100 | 27.5 |  | > 100 | > 100
COc1ccc(N2C(=O)C3c4[nH]c5ccc(C)cc5c4C4CCC(C(C)(C)C)CC4C3C2=O)cc1 (centres undefined) | 67.9 | 23.7 | > 100 | > 100 | > 100 | > 100 |  | 34.3 | > 100 | > 100 |  | 82.1 | 62.6 | 7.7 | 40.3 | > 100 | 48.9 | 64.5
Cc1nc(N)c(N2CCN(S(N)(=O)=O)CC2)c(=O)[nH]1 | > 100 |  | > 100 | > 100 | > 100 | > 100 |  | > 100 | > 100 | > 100 | > 100 | > 100 | > 100 | > 100 | > 100 | > 100 | > 100 | > 100
[O-][n+]1nc(N2CCOCC2)nc2ccccc21 | > 100 | > 100 | > 100 | > 100 | > 100 | > 100 |  | > 100 | > 100 | > 100 | > 100 | > 100 | > 100 | > 100 | > 100 | > 100 | > 100 | > 100
CCCN(CCc1ccc(-c2ccccc2)cc1)CCc1ccc2n[nH]nc2c1 | 22.2 | 25.5 | 23.9 | 27.5 | 19.7 | 21.4 | 15.2 | 25.4 | > 51.2 | 25.9 | 33.6 | 28.1 | 26.8 | 30.6 | 22.4 |  | 36.7 | 48.7
CC12CCCC(C(=O)O)(C1)[C@H](C(C)(C)C(=O)O)CC2 (some centres undefined) | > 100 | > 100 | > 100 | > 100 |  | > 100 | > 100 | > 100 | > 100 | > 100 | > 100 | > 100 | > 100 | > 100 | > 100 | > 100 | > 100 | > 100
CC(C)(C)c1cc(S(=O)(=O)O)c2oc(-c3ccccc3)cc(=O)c2c1 | > 100 | > 100 | > 100 | > 100 | > 100 | > 100 |  |  | > 100 | > 100 |  | > 100 | > 100 | > 100 | > 100 | > 100 | > 100 | > 100
O=C(O)c1cccc(Nc2c(C(=O)O)cccc2[N+](=O)[O-])c1 | > 100 | > 100 | > 100 | > 100 | > 100 | > 100 | > 100 | > 100 | > 100 | > 100 | > 100 | > 100 | > 100 | > 100 | > 100 | > 100 |  | 
CC(=O)OCC(OC(C)=O)C1C[C@H]2O[C@@H]3[C@H](C[C@H]2O1)O[C@@]1(C[C@@H]3C)C[C@H](C)[C@@H]2O[C@]3(C[C@@H]2O1)C[C@H]1O[C@H]2[C@H](C)[C@H]4OC(=O)C[C@H]5CC[C@@H]6OC7[C@H]8O[C@]9(CC[C@H]%10CC(=O)[C@H](CC[C@H]%11C[C@@H](C)C(=O)C(C[C@@H]4O[C@H]2C[C@H]1O3)O%11)O%10)CC8O[C@@H]7[C@@H](O9)[C@H]6O5 (some centres undefined) | 0.411 | > 1 | > 1 | > 1 |  | > 0.219 | > 1 | > 1 | > 1 | 0.00322 |  |  | > 1 | > 1 | > 1 | > 1 | 0.0731 | > 1
OC1=C2c3ccccc3NC2Oc2cc(F)ccc21 (centres undefined) | 48.2 | 48.4 | 37.5 | 22.4 | 32.4 | 37.3 | 54.1 | 31.8 | > 100 | 52.8 | 38.2 |  | 44.6 |  | 28.2 |  | 89.5 | 40.3
COc1ccc(CNc2ccn(C3OC(CO)C(O)C3O)c(=O)n2)cc1 (centres undefined) | > 100 | > 100 | > 100 | > 100 | > 100 | > 100 | > 100 | > 100 | > 100 | > 100 | > 100 | > 100 | > 100 |  | > 100 | 83.3 | > 100 | > 100
COc1cc(C(=O)NNC(=O)c2cc(Br)ccc2NC(=O)c2cccs2)cc(OC)c1OC | > 100 | > 100 | > 100 | 27 |  | 62.3 | 46.9 | 59.8 | 52.1 | 53.3 | 45.3 | 43.5 | 74.3 | 24.6 | 50.2 | 93.6 | 36.5 | 29.3
CC(=O)C(C(=O)c1ccc(C)cc1)[C@@H]1OC(C)(C)O[C@@H]1[C@H]1COC(C)(C)O1 (some centres undefined) | > 32.4 | 53.6 | 29.8 | > 100 | > 53.4 | 37 | > 100 | 35.8 | 15.4 | 11.3 | > 100 | 12.5 | > 48.3 | > 59.2 | > 41.5 | 25.1 |  | > 83.4
O=C1C2=Cc3ccccc3CCN2c2ccccc21 | 33 | 30.4 | > 100 | > 94.5 |  | > 79.5 | > 92.3 | 26.8 | > 61 | > 82.7 | > 100 | 23.3 | > 100 | > 100 | > 100 | 72.4 | 22 | > 74.2
O=C1CC(Br)c2c(Br)sc(Br)c21 (centres undefined) | 36.7 | 38.8 | 45.7 | 39 |  | 34.6 | 31.5 | 29.2 | 32.4 | 24.4 | 31.9 | 28 | 76.2 | 42.4 | 34.7 | 39.3 | 54.6 | 62.4
Cc1cccc2nc(-c3ccccc3)cc(=O)n12 | > 100 |  | > 100 | > 100 | > 100 | > 100 | > 100 | > 100 | > 100 | > 100 | > 100 | > 100 | > 100 |  |  | > 100 | > 100 | > 100
COc1cccc(Nc2nc(C)c([N+](=O)[O-])c(Nc3cccc(OC)c3)n2)c1 | 8.14 |  | 56.1 | 78.4 |  | > 100 | > 100 | > 100 | > 100 | > 100 | > 100 | 45.9 | > 100 | 4.73 | > 100 | > 100 | > 100 | > 100
CCCCCCCC(CC(=O)NC(CO)C(=O)NC(CO)CC(C)C)OC(=O)CC(CCCCCCC)OC(=O)CC(CCCCCCC)OC1OC(C)C(O)C(OC2OC(C)C(O)C(OC(C)=O)C2O)C1O (centres undefined) | 19.9 | 30.2 | 23.4 | 28.7 | 23.2 |  | 22.8 | 22.6 | 24.7 | 28.4 | 24 |  | 20.4 | 19.1 | 28.3 | 23.4 | 35.1 | 25.9
